# Reference: US12091650B2, “Development of spinal cord on a microfluidic chip” (EMULATE, INC., priority 2016, dated 2024)
# Entries after “also recorded” stand apart in the source; their conditions may differ.
# Assays:
# neurons seeded in chip = format: cell-based, human
# [1] = system: SC-Chip neurons (lines 83GFP and 00iCTR); format: cell-based, human
# [2] = system: blood brain barrier (BBB) on-chip; format: in vitro ADME, human; settings: FIG. 46A, % Dextran (fluorescence)
# Procedure: (§1) In some embodiments, methods for seeding cells on-chip are provided, as follows for one example: Day—1: Activate and Coat Chips, Day 0: Seed HBMECs, Astrocytes and Pericytes.; Day 1: Initiate flow of media @60 μl/hr. Bottom channel only or Top and bottom channels.; Day 2: Initiate permeability assay: Dextran+ Serum proteins+ Compounds of interest.; Day 3: End permeability assay. Collect media and freeze.; Day 4: Test permeability modulators/experimental stimuli Day 5: Repeat permeability assay.; Day 6: End permeability assay—Collect media and freeze. Fix or lyse chips.
# iBMEC barrier function = assay: TEER measurement on prototype TEER chips under flow; format: cell-based, human; settings: FIG. 14A, chips under flow then exposed to TNFa
# Procedure: Cells were plated on tall channel PDMS chips equipped with incorporated gold electrodes on each channel (see FIG. 13A). Post seeding of BMECs, transendothelial electrical resistance was measured by connecting the electrodes to an EVOM2 voltohmmeter (see FIG. 13B). […] The “damaged” chip was a failure due to the TEER-Chips being a prototype.
# Higher TEER values generally indicate a tighter barrier, which is typically desirable for a blood-brain barrier.
# [3] = system: BMECs seeded on a microfluidic device; assay: Paracellular permeability assay with Dextran-FITC on chip; format: cell-based, human; settings: FIG. 14B, TNFa exposure
# Procedure: Albumin or Dextran conjugated to a fluorescent probe (e.g., FITC or TRITC) are frequently used to monitor changes in leakage, and thus barrier function. In this case, Dextran-FITC, a green fluorescent molecule of 4 KDa, or sodium fluorescein (a 0.3 KDa molecule), was added to the bottom (“blood side”) channel. Paracellular permeability was calculated by measuring the permeability of the fluorescent molecule on the Top (“brain side”) channel. […] FIG. 14B involves TNF-alpha exposure, but the readout is membrane permeability as measured by Dextran-FITC.
# [4] = system: blood brain barrier (BBB) on-chip, iPS-derived brain endothelial cells; assay: Barrier function test with human serum proteins (ELISA); format: in vitro ADME; settings: FIG. 47, ELISA
# Procedure: as §1
compound,measurement,setting,value
NC1=N[C@H](O)[C@H]2[C@H]3O[C@]4(O)O[C@@H]([C@@H](O)[C@@]2(N1)[C@@H]4O)[C@]3(O)CO [tetrodotoxin],effect on calcium flux (neuronal) activity,neurons seeded in chip,ablates this activity
same,neuron activity (calcium transients),[1],completely ablated
Dextran,diffusion from Vascular Channel to Neuronal Channel,[2],low diffusion
TNFa,iBMEC barrier function (TEER) after exposure,iBMEC barrier function,weakening of barrier function; also recorded: decrease in barrier function and TEER
same,permeability through the semi-porous membrane by dextran-FITC after exposure,[3],increase in permeability
transferrin: human transferrin measured by ELISA,"diffusion / level in neuronal channel, from Vascular Channel to Neuronal Channel",[4],High levels
